Measurements published in patent publication US11058700B2, “Macrocyclic lactones and uses thereof as modulators of purinergic receptors” (City of Hope, priority 2015, dated 2021).
Where a SMILES comes first, the peptide text is derived from it. The star is where a group is joined. Cbz = O=C(OCc1ccccc1)*; CH2F = FC*

Experiments:
Type in all cases: cell-based, mouse
4T1.2 shRNA (P2X7) = test: Synergy between Ivermectin and ATP (CI), P2X7 knockdown cells
Method: (§1) FIGS. 5A-5E. CaMKII-independent P2X7-mediated killing. FIG. 5A: qPCR showing the extent of gene knockdown in 4T1.2 cells transfected with shRNA targeting the P2X7 receptor versus non-targeting (NT) control (left panel). […] One million wt, shRNA(NT) and shRNA(P2X7) 4T1.2 cells were plated and incubated for 48 h before evaluation of cell numbers and viability. FIG. 5B: P2X7 knockdown cells are more resistant to ATP and the ATP/IVM combo. 4T1.2 cells were treated for 24 h with 1-3 mM ATP, 6-10 μM Ivermectin, or combinations of ATP and Ivermectin. P2X7 knockdown suppresses the synergy between Ivermectin and high dose ATP, as shown by calculation of combination index (CI) values, see Table 2. FIG. 5C: P2X7 knockdown cells are resistant to ATP/Ivermectin induced membrane permeabilization (Asterisk (*) indicates p<0.05). […] FIG. 5E: Comparison of the protective effects of P2X7, CaMKII, and NADPH oxidases inhibition in short-term (4 h, 32 μM IVM) and long-term (24 h, 12 μM IVM) exposure of 4T1.2 cells to Ivermectin. Asterisk (*) indicates p<0.05 relative to Ivermectin alone controls.
(§2) Cell viability. Cancer cells were plated on 96 well flat-bottom plates and allowed to attach overnight. Cells were then pre-incubated with drugs for 1 h and treated with Ivermectin for 4 h. In the case of 24 h and 48 h incubations the cells, Ivermectin and drugs were plated together. All treatments and controls were done in triplicate wells and results were validated in at least two independent experiments. Following treatment the plates were washed once with PBS and cell viability was measured using the acid phosphatase assay. Briefly, cells were incubated for 1h at 37° C. in 100 μL assay buffer (0.16 M sodium acetate, 0.1% Triton-X-100, supplemented with 4-Nitrophenyl phosphate disodium salt hexahydrate, Sigma Aldrich, at 0.00263 g/ml). Reaction was stopped using 10 μL of 1N sodium hydroxide. Absorption at 405 nm was measured within 10 min using a multi-well plate reader. Mode of cell death and viability of cells in suspension was evaluated using flow cytometry. Briefly, cancer cells were pre-incubated with drugs for 30 min to 1 h, as indicated, treated with Ivermectin for 4 h in 5 ml FACS tubes , washed twice in PBS and stained with PE-conjugated Annexin V and 7AAD (1 μl per 100 μl/200,000 cancer cells) for 15 min.
(§3) Generation of P2X7 receptor knockdown 4T1.2 cells. 4T1.2 cells were transduced using Sigma mission shRNA lentiviral transduction particle with four P2X7 shRNA (NM_011027/TRCN0000068568, NM_011027/TRCN0000068570, NM_011027/TRCN0000068571, NM_011027/TRCN0000068572) or Non-Target control (SHC002V). The viral particles were added to growing cells in the presence of […] POLYBRENE® (Sigma, St Louis, Mo.), and incubated overnight at 37° C. Puromycin selection (2000 ng/ml) was done from third day onwards to select for stably transformed cells.

4T1.2 shRNA (NT) = test: Synergy between Ivermectin and ATP (CI), non-targeting control cells
Method: as §1, §2, §3

4T1.2 cells = test: Cell viability (acid phosphatase assay) of cancer cells treated with Ivermectin; conditions: cells treated with Ivermectin (32 μM, 4 h in figure legends) in the presence of the agent
Method: as §2

4T1.2 cancer cells = test: Synergy between Ivermectin and ROS (CompuSyn CI); conditions: 4T1.2, 24 h/48 h
Method: FIGS. 2A-2C. Role of NADPH oxidases-generated ROS. […] 4T1.2 cells were labeled with a ROS detection probe and treated for 1 h with 32 μM Ivermectin in the presence of 1 mM EDTA, 5mM NAC, 5 μM DPI, 2500 μunits/ml Apyrase, 3 mM ATP, and 10 μM KN-62. […] Triangles (▴) indicate significant antagonism CI>1.0. […] 4T1.2 cancer cells were irradiated (10-20 kRad) or treated with H2O2 (10-1000 μM), PTX (0.1-1 μM), or DOX (1-4 μM) and incubated with Ivermectin for 24 h/48 h. Circles (●) indicate significant synergy CI<1.0, see Table 1. Asterisk (*) indicates p<0.05 relative to untreated or Ivermectin alone controls, respectively.
as §2, with “All treatments and controls were done in triplicate wells and results were validated in at least two independent experiments.” left out

[1] = tested on: murine and human TNBC cells; test: Reactive oxygen species
Method: Reactive oxygen and nitrogen species. Cancer cells in suspension were washed with PBS and loaded with 50 μM H2DCFDA (Molecular Probes, Life Technologies, D399) or 5 μM DAF-2 (Cayman Chemical, Catalog #85165) for 30 min at room temperature in the dark. Cells were washed twice with PBS and treated with various doses of Ivermectin in R10 medium. Cells were incubated for 1h in 5 ml FACS tubes at 37° C. and 5% CO2, and immediately analyzed by flow cytometry. Generation of intracellular ROS and NO results in corresponding increases in the GFP fluorescence of the H2DCFDA and DAF-2 probes, respectively.

## Nc1ncnc2c1ncn2[C@@H]1O[C@H](COP(=O)(O)OP(=O)(O)OP(=O)(O)O)[C@@H](O)[C@H]1O [ATP, adenosine triphosphate]
4T1.2 shRNA (P2X7); ATP 1 + I 6, 24 h
  CI values: 1.49
4T1.2 shRNA (P2X7); ATP 1 + I 8, 24 h
  CI values: 1.39
4T1.2 shRNA (P2X7); ATP 1 + I 10, 24 h
  CI values: 1.35
4T1.2 shRNA (P2X7); ATP 2 + I 6, 24 h
  CI values: 1.18
4T1.2 shRNA (P2X7); ATP 2 + I 8, 24 h
  CI values: 1.03
4T1.2 shRNA (P2X7); ATP 2 + I 10, 24 h
  CI values: 1.11
4T1.2 shRNA (P2X7); ATP 3 + I 6, 24 h
  CI values: 0.96
4T1.2 shRNA (P2X7); ATP 3 + I 8, 24 h
  CI values: 0.91
4T1.2 shRNA (P2X7); ATP 3 + I 10, 24 h
  CI values: 0.86
4T1.2 shRNA (NT); ATP 1 + I 6, 24 h
  CI values: 1.18
4T1.2 shRNA (NT); ATP 1 + I 8, 24 h
  CI values: 1.01
4T1.2 shRNA (NT); ATP 1 + I 10, 24 h
  CI values: 1.24
4T1.2 shRNA (NT); ATP 2 + I 6, 24 h
  CI values: 1.17
4T1.2 shRNA (NT); ATP 2 + I 8, 24 h
  CI values: 1.01
4T1.2 shRNA (NT); ATP 2 + I 10, 24 h
  CI values: 1.10
4T1.2 shRNA (NT); ATP 3 + I 6, 24 h
  CI values: 0.67
4T1.2 shRNA (NT); ATP 3 + I 8, 24 h
  CI values: 0.64
4T1.2 shRNA (NT); ATP 3 + I 10, 24 h
  CI values: 0.63

## CCCCC1(C2CCCC2)Cc2cc(OCCCC(=O)O)c(Cl)c(Cl)c2C1=O (centres unmarked) [DCPIB]
4T1.2 cells
  effect on Ivermectin-induced cell death: exacerbates Ivermectin killing

## COc1cccc2c1C(=O)c1c(O)c3c(c(O)c1C2=O)C[C@@](O)(C(=O)CO)C[C@@H]3O[C@H]1C[C@H](N)[C@H](O)[C@H](C)O1 [DOX, doxorubicin]
4T1.2 cancer cells; DOX 1 + Ivermectin 2
  CompuSyn CI values: .43
4T1.2 cancer cells; DOX 1 + Ivermectin 4
  CompuSyn CI values: .61
4T1.2 cancer cells; DOX 2 + Ivermectin 2
  CompuSyn CI values: .42
4T1.2 cancer cells; DOX 2 + Ivermectin 4
  CompuSyn CI values: .56

## c1ccc2c(c1)[I+]c1ccccc1-2 [DPI, Diphenyleneiodonium]
4T1.2 cells
  effect on Ivermectin-induced cell death: transiently block Ivermectin-induced killing

## C[C@H]1O[C@@H](O[C@H]2[C@@H](O)C[C@H](O[C@H]3[C@@H](O)C[C@H](O[C@H]4CC[C@@]5(C)[C@H](CC[C@@H]6[C@@H]5C[C@@H](O)[C@]5(C)[C@@H](C7=CC(=O)OC7)CC[C@]65O)C4)O[C@@H]3C)O[C@@H]2C)C[C@H](O)[C@@H]1O [Digoxin]
4T1.2 cells
  effect on Ivermectin-induced cell death: demonstrated some protection

## O=C(O)CN(CCN(CC(=O)O)CC(=O)O)CC(=O)O [EDTA]
4T1.2 cells
  effect on Ivermectin-induced cell death: cell death can be suppressed

## N[C@@H](CCC(=O)N[C@@H](CS)C(=O)NCC(=O)O)C(=O)O [GSH]
4T1.2 cells
  effect on Ivermectin-induced cell death: completely failed to prevent, or even delay, Ivermectin-induced killing
[1]
  blockade of Ivermectin-induced ROS by ROS scavengers: less effective against Ivermectin-induced ROS

## OO [H2O2]
4T1.2 cancer cells; H2O2 100 + Ivermectin 8
  CompuSyn CI values: .46
4T1.2 cancer cells; H2O2 100 + Ivermectin 16
  CompuSyn CI values: .39
4T1.2 cancer cells; H2O2 1000 + Ivermectin 8
  CompuSyn CI values: .24
4T1.2 cancer cells; H2O2 1000 + Ivermectin 16
  CompuSyn CI values: .20

## CC(=O)N[C@@H](CS)C(=O)O [NAC]
4T1.2 cells
  effect on Ivermectin-induced cell death: completely failed to prevent, or even delay, Ivermectin-induced killing
[1]
  blockade of Ivermectin-induced ROS by ROS scavengers: less effective against Ivermectin-induced ROS

## CN1C(=O)C(Cc2c[nH]c3ccccc23)NC1=S (centres unmarked) [Necrostatin]
4T1.2 cells
  effect on Ivermectin-induced cell death: demonstrated some protection

## Nc1ncnc2c1ncn2[C@@H](C=O)O[C@@H](C=O)COP(=O)(O)OP(=O)(O)OP(=O)(O)O [OxATP]
4T1.2 cells
  effect on Ivermectin-induced cell death: did not observe any protection

## Cc1nc(N=Nc2ccc(S(=O)(=O)O)cc2S(=O)(=O)O)c(COP(=O)(O)O)c(C=O)c1O [PPADs]
4T1.2 cells
  effect on Ivermectin-induced cell death: did not observe any protection

## Nc1c(S(=O)(=O)[O-])cc(Nc2ccc(Cl)cc2)c2c1C(=O)c1ccccc1C2=O.[Na+] [PSB 069]
4T1.2 cells
  effect on Ivermectin-induced cell death: Ivermectin-induced cytotoxicity was suppressed

## CC(=O)O[C@H]1C(=O)[C@@]2(C)[C@H]([C@H](OC(=O)c3ccccc3)[C@]3(O)C[C@H](OC(=O)[C@H](O)[C@@H](NC(=O)c4ccccc4)c4ccccc4)C(C)=C1C3(C)C)[C@]1(OC(C)=O)CO[C@@H]1C[C@@H]2O [PTX, paclitaxel]
4T1.2 cancer cells; PTX 0.1 + Ivermectin 1
  CompuSyn CI values: .35
4T1.2 cancer cells; PTX 0.1 + Ivermectin 2
  CompuSyn CI values: .52
4T1.2 cancer cells; PTX 1 + Ivermectin 1
  CompuSyn CI values: .30
4T1.2 cancer cells; PTX 1 + Ivermectin 2
  CompuSyn CI values: .51

## CCCN(CCC)S(=O)(=O)c1ccc(C(=O)O)cc1 [Probenecid]
4T1.2 cells
  effect on Ivermectin-induced cell death: enhanced Ivermectin cytotoxicity

## Cc1ccc(C(=O)Nc2ccc(S(=O)(=O)O)c3cc(S(=O)(=O)O)cc(S(=O)(=O)O)c23)cc1NC(=O)c1cccc(NC(=O)Nc2cccc(C(=O)Nc3cc(C(=O)Nc4ccc(S(=O)(=O)O)c5cc(S(=O)(=O)O)cc(S(=O)(=O)O)c45)ccc3C)c2)c1 [Suramin]
4T1.2 cells
  effect on Ivermectin-induced cell death: Ivermectin killing was initially enhanced

## CCO[C@@H]1OC(=O)C[C@@H]1NC(=O)[C@@H]1CCCN1C(=O)[C@@H](NC(=O)c1ccc(N)c(Cl)c1)C(C)(C)C [VX-765]
4T1.2 cells
  effect on Ivermectin-induced cell death: demonstrated some protection

## COC(=O)C[C@H](NC(=O)[C@H](C)NC(=O)[C@@H](NC(=O)OCc1ccccc1)C(C)C)C(=O)CF [Z-vad-fmk] (Cbz-Val-Ala-Asp(OMe)-CH2F)
4T1.2 cells
  effect on Ivermectin-induced cell death: inhibited cell death very effectively

## Apyrase
4T1.2 cells
  effect on Ivermectin-induced cell death: Ivermectin killing was initially enhanced
